Laboratory results taken from patent publication US20240373849A1, “INSECT NEUROPEPTIDE ANALOGUES” (THE UNIVERSITY COURT OF THE UNIVERSITY OF GLASGOW, priority 2020, published 2024).
“And” between values parts separate entries of the source, which are not always exact repeats. Identical values can stand only once.

Legend:
CapaR = biological target: T1, CapaR (Drosophila melanogaster, UniProt Q8ITC7); assay: Measurement of intracellular Ca2+ in S2 cells transfected with CapaR (agonist response); type: cell-based; conditions: 10^−7 M; activity normalised to that of native Capa2 (designated 100%)
T1 construct: transiently transfected with the apoaequorin ORF; expressed in transfected cells; host or cells: Drosophila melanogaster S2 cells, transient transfection, expression induced with CuSO4
T1 sequence (Q8ITC7 1-477): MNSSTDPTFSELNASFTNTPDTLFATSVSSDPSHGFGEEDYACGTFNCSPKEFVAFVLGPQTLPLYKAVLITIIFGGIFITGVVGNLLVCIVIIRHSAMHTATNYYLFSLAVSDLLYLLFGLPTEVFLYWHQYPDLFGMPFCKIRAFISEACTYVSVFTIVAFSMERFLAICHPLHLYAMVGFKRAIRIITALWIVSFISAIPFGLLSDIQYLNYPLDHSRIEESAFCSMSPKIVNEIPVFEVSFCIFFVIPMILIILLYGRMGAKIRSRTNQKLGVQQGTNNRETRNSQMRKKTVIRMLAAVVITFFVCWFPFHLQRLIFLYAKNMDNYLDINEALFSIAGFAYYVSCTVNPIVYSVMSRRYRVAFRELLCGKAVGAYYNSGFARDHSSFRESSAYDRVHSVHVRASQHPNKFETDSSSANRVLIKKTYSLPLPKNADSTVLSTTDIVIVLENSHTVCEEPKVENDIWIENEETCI
Protocol: Drosophila melanogaster S2 cells, cultured under standard conditions (1) were transiently transfected with the apoaequorin ORF (Radford J C, Davies S A, Dow J A. Systematic G-protein-coupled receptor analysis in Drosophila melanogaster identifies a leucokinin receptor with novel roles. J Biol Chem. 2002; 277:38810-38817) and a receptor ORF construct, and expression induced using CuSO4. Transfected S2 cells were harvested and incubated with 2.5 μM coelenterazine in the dark at RT for 1-2 h as described (ibid). 25,000 cells were then placed in 135 μl Schneider's medium supplemented with 10% FCS in a well of a white polystyrene 96-well plate (Berthold Technologies). Bioluminescence recordings were carried out using a Mithras LB940 automated 96-well plate reader (Berthold Technologies) and MikroWin software. 15 μl of each of different peptides were applied to final concentrations as required.
Peptides were tested at 10^−7M.
At the end of each recording samples were disrupted by the addition of 100 μl lysis solution, and the [Ca^2+] concentrations calculated as previously described (Rosay P, Davies S A, Yu Y, Sozen A, Kaiser K, et al. Cell-type specific calcium signalling in a Drosophila epithelium. J Cell Sci. 1997; 110:1683-1692).
For the Capa1 and Capa2 peptides, the relevant native control peptide (D. melanogaster Capa1 or Capa2 respectively) was used as a control. Control agonist activity was normalised to 100% and activity of neuropeptide analogues is expressed relative to that.

[1] = test system: bumblebees (Bombus terrestris); assay: Bumblebee acute oral toxicity test; type: in vivo; conditions: for safety towards B. terrestris in the bumblebee oral toxicity assay: in vivo
Protocol: Oral toxicity against bumblebees (Bombus terrestris) was determined as previously described:
OECD (2017), Test No. 247: Bumblebee, Acute Oral Toxicity Test, OECD Guidelines for the Testing of Chemicals, Section 2, OECD Publishing, Paris, https://doi.org/10.1787/9789264284128-en.
Example data are provided for peptides, AH56, AH257, AH259 in Tables 4, 5 below. […]
Data were acquired for: feeding behaviour—weight of liquid consumed pre- and post-treatment; lethality (days).
There was no negative impact on feeding behaviour from capa peptides. Acute bumblebee toxicity was also assessed for other peptide candidates including: AH270, PEG270. Overall, capa peptides are bee safe.

[2] = Table 11, individual bees, peptide 1 × 10 − 5M or Spirotetramat 25 uM

SMILES	CapaR Ca^2+ Agonist response (CapaR)	lethal effect on bumblebees ([1]; 1×10^−5 M in 50% sucrose, 0.1% ATPlus, oral)	dead? ([1]; Table 10, individual bees, peptide ×10−5M or imidacloprid 28.3 uM in 50% sucrose, 0.1% ATPlus)	safety towards B. terrestris in the bumblebee oral toxicity assay [1]	Est weight sucrose consumed post testing/day ([1]; individual bees, peptide ×10−5M or imidacloprid 28.3 uM in 50% sucrose, 0.1% ATPlus)	Feeding impacted? (+ve feeding increased post pep, −ve feeding decreased post pep) ([1]; individual bees, post minus pre testing sucrose consumption)	T-test outcome, sucrose consumed Pre vs Post ([1]; per treatment group)	Liquid post exposure (weight), Mean ([1]; Table 11, group mean, n=10)	liquid consumed per day post exposure, Mean ([1]; Table 11, group mean, n=10)	Liquid post exposure (weight) [1, 2]	days alive [1, 2]	liquid consumed per day post exposure [1, 2]
CC(C)C[C@H](N=C(N(C)C)N(C)C)C(=O)N[C@H](C(=O)N[C@@H](C)C(=O)N[C@@H](Cc1ccccc1)C(=O)N1CCC[C@H]1C(=O)N[C@@H](CCCNC(=N)N)C(=O)N(C)[C@H](C(N)=O)C(C)C)C(C)C [AH257, Guanidyl-LVAFPR-(Me)V-NH2]	85%	No lethal effect	2	safe	0.4789 grams/day and 0.0824 grams/day and 0.2612 grams/day and 0.3450 grams/day and 0.1265 grams/day and 0.4161 grams/day and 0.2912 grams/day and 0.3677 grams/day and 0.2298 grams/day and 0.3016 grams/day and 0.2869 grams/day	0.0902 grams/day and −0.0881 grams/day and 0.0770 grams/day and 0.0006 grams/day and −0.0429 grams/day and −0.0008 grams/day and −0.0193 grams/day and 0.2039 grams/day and 0.0347 grams/day and 0.0995 grams/day and 0.0416 grams/day	No sig effect					
CC(C)C[C@H](NC(=O)CCCCCN)C(=O)N[C@H](C(=O)N(C)[C@@H](C)C(=O)N[C@@H](Cc1ccccc1)C(=O)N1CCC[C@H]1C(=O)N[C@@H](CCCNC(=N)N)C(=O)N(C)[C@H](C(N)=O)C(C)C)C(C)C [AH270, H-Ahx-LV-(Me)A-FPR-(Me)V-NH2]	85%			safe				0.7794 g	0.1949 g	0.9262 g and 0.7170 g and 1.8815 g and 0.8535 g and 0.6307 g and 0.4568 g and 0.3007 g and 0.5227 g and 1.1365 g and 0.3679 g	4 days	0.2316 g and 0.1793 g and 0.4704 g and 0.2134 g and 0.1577 g and 0.1142 g and 0.0752 g and 0.1307 g and 0.2841 g and 0.0920 g
